In US7994127B2, “Treatment of rett syndrome” (Massachusetts Institute of Technology, priority 2007, dated 2011):

Key:
[1] = tested on: layer 5 pyramidal neurons of MeCP2−/y mice; assay: Intracellular whole-cell recordings of spontaneous EPSCs in acute cortical slices; assay type: ex vivo, mouse
Method: (1-3)IGF-1 treatment: For the survival measurements, the nocturnal activity analysis and the immunoblot analysis, (1-3) IGF-1 (Bachem Biosciences # H22468) was administered daily via intra-peritoneal injections (0.01 mg/g body weight, vehicle=saline, 0.01% BSA). The treatment was started at P15 and maintained throughout the course of the experiments. For intracellular physiology experiments, the mice were injected daily (0.01 mg/g body weight, vehicle=saline, 0.01% BSA) for 2 weeks, from P15 to P28-P32 when they were used for acute slice preparation. For optical imaging experiments, mice were injected with (1-3) IGF-1 (0.02 mg/g body weight, vehicle=saline, 0.01% BSA) daily from the day of the lid suture to the day of imaging. Slice physiology preparation: Coronal sections (300 μm thick) at or near sensorimotor cortex were cut in <4° C. ACSF using a Vibratome. Slices were incubated at 37° C. for 20 minutes after slicing, and at room temperature for the remainder of the experiment. Slices were transferred to a Warner chamber and recordings were taken from visually identified pyramidal neurons located in layer 5. Artificial cerebral spinal fluid (ACSF) contained 126 mM NaCl, 25 mM NaHCO3, 1 mM NaHPO4, 3 mM KCl, 2 mM MgSO4, 2 mM CaCl2, and 14 mM dextrose, was adjusted to 315-320 mOsm and 7.4 pH, and was bubbled with 95% O2/5% CO2. The intracellular pipette solution contained 100 mM potassium gluconate, 20 mM KCl, 10 mM HEPES, 4 mM MgATP, 0.3 mM NaGTP, and 10 mM Na-phosphocreatine. […] Cells were visualized with an Achroplan 40× water-immersion lens with infrared-DIC optics (Zeiss) and detected with an infrared camera (Hamamatsu) projecting to a video monitor. […] Then in current clamp ˜10 pulses (500 ms, 40-140 pA at 10 pA increments), were applied to quantify evoked firing rates and cellular excitability. […] Analysis was performed using a custom software package written in Matlab, with all events detected according to automated thresholds and blindly verified for each event individually by the experimenter. […]

[2] = tested on: neurons in the CA3 region of the hippocampus; assay: Neuron soma size in hippocampus; assay type: in vivo, mouse
Method: We also measured the effect of (1-3)IGF1 treatment on neuron soma size in hippocampus. Mice were treated with (1-3)IGF1 as described above for locomotor activity.

synaptic transmission = assay: Synaptic transmission during direct application of the molecules; assay type: cell-based, mouse; details: direct application of the molecule
Excerpt: rhIGF1 produced a similar improvement as (1-3)IGF-1 in all maturational signatures measured, including (A) synaptic transmission levels, and (B) circuit stability (by preventing ocular dominance plasticity) in P60 MeCP2 KO mice.
The above data focused on the (1-3)IGF-1 fragment of IGF1 to promote IGF1 signaling. We also have tested the effect of the full-length IGF1 peptide already approved for pediatric administration in human patients (for short stature indications). We have verified a correspondence in the effects of (1-3)IGF-1 and recombinant human IGF1 (rhIGF1).

## NCC(=O)N1CCC[C@H]1C(=O)N[C@@H](CCC(=O)O)C(=O)O [(1-3)IGF-1, glycyl-L-prolyl-L-glutamic acid]
[1]; KO-T compared to KO, treated two weeks, mice 28-32 days old
  mean EPSC amplitude per neuron, across all cells (FIG. 1C): modestly but significantly increased
[1]; MeCP2−/y mice, 0.01 mg/g body weight IP daily for 2 weeks, P15 to P28-P32, vs vehicle-treated MeCP2−/y
  spontaneous EPSC amplitude (FIG. 1B): significantly larger in amplitude
[1]; between WT, and KO and KO-T groups
  distributions of intervals between EPSC events (EPSC frequency, FIG. 1D): subtly but significantly modified
[2]; MeCP2 KO animals, treated as for locomotor activity
  average soma size (cell perimeter, FIG. 7): increased average soma size in KO animals
[2]; as a result of the knockout or treatment (Discussion)
  size of cell bodies: no change was observed
[2]; wild type animals treated
  soma size (cell perimeter, FIG. 7): had no effect on soma size in wild type animals
Synaptic transmission
  synaptic activity / synaptic transmission levels (FIG. 9A): striking enhancements of synaptic activity
